Where two headings read alike, the source gives them in different places.
Assay: Phase 1 study Part 2: single-dose plasma pharmacokinetics, relative bioavailability (tablet vs AIC) and food effect in healthy subjects
Type: in vivo, human
Conditions: for AUC(0-t) / Tmax / AUC(0-inf) / Cmax / Vd/F / half-life: human, plasma; for Vd/F: read-out: Vz/F (apparent total volume of distribution); for half-life: read-out: t1/2 (terminal elimination half-life) (converted)
Experimental: Part 2 was an open label, randomized, crossover study with three periods. The study consisted of a screening phase (Days −21 to −2), baseline (Day −1), three treatment/assessment periods, and a follow up phone call.
Twelve eligible subjects reported to the study center on Day −1 of Period 1 for confinement and baseline assessments.
All subjects fasted overnight for at least 10 hours prior to dosing. For Treatment F, subjects received a standard high-fat breakfast 30 minutes before dosing. Dosing occurred 30 minutes (±5 minutes) after serving the meal.
Treatments D and E were administered in the morning following an overnight fast of at least 10 hours. Subjects who received Treatments D and E (fasted) continued to fast for at least 4 hours after dosing. For Treatment F, subjects received a standard high fat (approximately 50% of the total caloric content of the meal), high calorie (approximately 800 to 1000 calories) breakfast 30 minutes before dosing. The meal derived approximately 150, 250, and 500 to 600 calories from protein, carbohydrates, and fat, respectively. Subjects consumed the entire meal within 30 minutes of serving. Dosing occurred 30 minutes (±5 minutes) after serving the meal.
Actual sampling times were used in the calculation of PK parameters.
AUCt: AUC from time zero to the last quantifiable concentration.
AUC∞: AUC from time zero extrapolated to infinity.
Cmax: Maximum observed plasma concentration.
CL/F: Apparent total plasma clearance when dosed orally.
Vz/F: Apparent total volume of distribution when dosed orally.
t1/2: Terminal phase elimination half-life.
Geometric least squares (LS) means, ratio (fed/fasted) and 90% confidence intervals (CIs) of the ratio of geometric LS means were from an analysis of variance (ANOVA) model with treatment, period, and sequence as fixed effects, and subject nested within sequence as a random effect on the natural log-transformed pharmacokinetics.
The median, median difference (fed-fasted), and 90% confidence interval of the median difference were from the Hodges-Lehmann estimate.

[1] = 200 mg tablet vs 2×100 mg capsules, single oral dose, fasted
[2] = Comparison E/D: 200 mg tablet fasted vs 2×100 mg AIC fasted
[3] = Comparison F/E: 200 mg tablet fed vs fasted
[4] = po, 200 mg, Treatment D: 2×100 mg as AIC, single oral dose, fasted, geometric mean (geometric CV%), N=12
[5] = po, 200 mg, Treatment E: 1×200 mg formulated tablet, single oral dose, fasted, geometric mean (geometric CV%), N=12

AUCt and AUC∞ of tablet compared to the capsules [1]: equivalent | Cmax of tablet lower relative to the capsule formulation [1]: ~17% | AUCt, Ratio (%) of Geometric Means [2]: 92.6% | AUC∞, Ratio (%) of Geometric Means [2]: 92.9% | Cmax, Ratio (%) of Geometric Means [2]: 82.9% | AUCt, Ratio (%) of Geometric Means [3]: 100.6% | AUC∞, Ratio (%) of Geometric Means [3]: 100.8% | Cmax, Ratio (%) of Geometric Means [3]: 106.4% | AUCτ (time 0 to the last quantifiable concentration) (Treatment F: 1×200 mg formulated tablet, single oral dose, fed (high-fat breakfast), geometric mean (geometric CV%), N=12): 12000 (27.4) ng · h/mL | AUC(0-t) (200 mg, Treatment D: 2×100 mg as AIC, single oral dose, fasted, healthy subjects, geometric mean (geometric CV%), N=12, read-out: AUCτ (time 0 to the last quantifiable concentration)): 12900 ng·h/mL | Tmax (oral, 200 mg, Comparison E/D: 200 mg tablet fasted vs 2×100 mg AIC fasted, read-out: tmax, Median Difference): 0.01 h | Tmax (oral, 200 mg, Comparison F/E: 200 mg tablet fed vs fasted, read-out: tmax, Median Difference): 0.87 h | Tmax (oral, postdose, for all doses (Part 1 and Part 2), read-out: median Tmax): 1.95 to 3 h | AUC(0-t) (po, 200 mg, Treatment D: 2×100 mg as AIC, single oral dose, fasted, N=12, read-out: AUCt, Geometric Mean (ANOVA LS mean)): 12900 ng·h/mL | AUC(0-inf) (po, 200 mg, Treatment D: 2×100 mg as AIC, single oral dose, fasted, N=12, read-out: AUC∞, Geometric Mean (ANOVA LS mean)): 13100 ng·h/mL | Cmax (po, 200 mg, Treatment D: 2×100 mg as AIC, single oral dose, fasted, N=12, read-out: Cmax, Geometric Mean (ANOVA LS mean)): 2080 ng/mL | Tmax (po, 200 mg, Treatment D: 2×100 mg as AIC, single oral dose, fasted, N=12, read-out: tmax, Median (Hodges-Lehmann estimate)): 2 h | AUC(0-inf) (po, 200 mg, Treatment D: 2×100 mg as AIC, single oral dose, fasted, geometric mean (geometric CV%), N=12, read-out: AUC∞): 13100 ng·h/mL | Cmax (po, 200 mg, Treatment D: 2×100 mg as AIC, single oral dose, fasted, geometric mean (geometric CV%), N=12, read-out: Cmax): 2080 ng/mL | Vd/F [4]: 447 L | half-life [4]: 20.3 h | Tmax (po, 200 mg, Treatment D: 2×100 mg as AIC, single oral dose, fasted, median (minimum, maximum), N=12, read-out: Tmax): 2 h | AUC(0-t) (po, 200 mg, Treatment E: 1×200 mg formulated tablet, single oral dose, fasted, N=12, read-out: AUCt, Geometric Mean (ANOVA LS mean)): 11900 ng·h/mL | AUC(0-inf) (po, 200 mg, Treatment E: 1×200 mg formulated tablet, single oral dose, fasted, N=12, read-out: AUC∞, Geometric Mean (ANOVA LS mean)): 12200 ng·h/mL | Cmax (po, 200 mg, Treatment E: 1×200 mg formulated tablet, single oral dose, fasted, N=12, read-out: Cmax, Geometric Mean (ANOVA LS mean)): 1730 ng/mL | Tmax (po, 200 mg, Treatment E: 1×200 mg formulated tablet, single oral dose, fasted, N=12, read-out: tmax, Median (Hodges-Lehmann estimate)): 2 h | AUC(0-t) (po, 200 mg, Treatment E: 1×200 mg formulated tablet, single oral dose, fasted, geometric mean (geometric CV%), N=12, read-out: AUCτ (time 0 to the last quantifiable concentration)): 11900 ng·h/mL | AUC(0-inf) (po, 200 mg, Treatment E: 1×200 mg formulated tablet, single oral dose, fasted, geometric mean (geometric CV%), N=12, read-out: AUC∞): 12200 ng·h/mL | Cmax (po, 200 mg, Treatment E: 1×200 mg formulated tablet, single oral dose, fasted, geometric mean (geometric CV%), N=12, read-out: Cmax): 1730 ng/mL | Vd/F [5]: 477 L | half-life [5]: 20.1 h
SMILES: C[C@@H]1CC[C@@H](Nc2nc(NC(C)(C)C)ncc2C(N)=O)C[C@H]1O [Compound 1, 2-(tert-butylamino)-4-((1R,3R,4R)-3-hydroxy-4-methylcyclohexylamino)-pyrimidine-5-carboxamide]
